According to US20220227782A1, “COMPOUND FOR INHIBITING RORyt ACTIVITY, PREPARATION METHOD THEREFOR AND APPLICATION THEREOF” (CELLREGEN (BEIJING) LIFE SCIENCE AND TECHNOLOGY CO., LTD., priority 2019, published 2022):

What was measured:
RORγt = molecular target: T1, RORγt (Homo sapiens, UniProt P51449); test: EC50 test, inhibition of RORγt transcription activity (luciferase activity reporter system) in RORγt-LBD+-Jurkat cells; assay type: cell-based; conditions: for EC50: half maximal effective concentration against RORγt-LBD+-Jurkat cells
T1 construct: half maximal effective concentration against RORγt-LBD+-Jurkat cells; expressed in transfected cells; host or cells: Jurkat
T1 sequence (P51449 269-508 limits assumed): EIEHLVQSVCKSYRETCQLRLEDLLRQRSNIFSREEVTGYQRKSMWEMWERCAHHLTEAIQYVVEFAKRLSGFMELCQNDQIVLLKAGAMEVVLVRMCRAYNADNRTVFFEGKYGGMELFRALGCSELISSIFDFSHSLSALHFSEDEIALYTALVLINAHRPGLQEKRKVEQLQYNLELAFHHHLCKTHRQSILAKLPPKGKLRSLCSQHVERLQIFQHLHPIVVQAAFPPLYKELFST
Description: (§1) EC50 and CC50 tests: EC50 (half maximal (50%) effective concentration) is a half maximal effective concentration against RORγt-LBD+-Jurkat cells, and CC50 (median (50%) cytotoxic concentration) is a median cytotoxic concentration against RORγt-LBD+-Jurkat cells.

[1] = CC50 test, median cytotoxic concentration against RORγt-LBD+-Jurkat cells; assay type: cell-based; conditions: human
Description: as §1

other RORs = conditions: cited from earlier work
Th17 cells = conditions: cited from earlier work
EAE = conditions: high concentrations (40 mg/kg); cited from earlier work
IL-17A = test: Intracellular protein expression of IL-17A (flow cytometer), Th17 cells; assay type: cell-based; conditions: FIG. 21; 1.56, 3.12 and 6.25 μM compound vs solvent group
Description: The compound for inhibiting RORγt activity as described above may be used in preparation of a therapeutic formulation for the treatment of autoimmune diseases, in preparation of a formulation that inhibits formation of a Th17 cell, in preparation of a formulation that inhibits the RORγt transcription activity, or in preparation of a formulation that inhibits transcription and expression of IL17A gene and/or IL17F gene. The compounds having the structural formula (A) has a good inhibitory effect on RORγt activity. […] Therefore, the compound may be used to produce a formulation of corresponding activity inhibitor, and provide a leading structure for the development of therapeutic drugs for autoimmune diseases.
(§2) In the figure, the results of solvent group, 1.56 μM compound group, 3.12 μM compound group, and 6.25 μM compound group are shown from left to right.

[2] = tested on: RORγt, IL17A, IL-17F mRNA; test: mRNA expression of RORγt, IL17A and IL-17F in Th17 cell differentiation in vitro; assay type: cell-based; conditions: FIG. 22, 1.56, 3.12 and 6.25 μM compound vs solvent group
Experimental: as §2

Row | EC50 (RORγt) [µM] | SMILES | CC50 [1] [µM] | further results
1 | > 10 | Cc1nc(Sc2nnnn2-c2ccccc2)c2c3c(sc2n1)CC(C(=O)NC1CCOCC1)CC3 (stereo not drawn) [Compound 15] | < 10 | –
2 | > 10 | Cc1nc(Sc2nnnn2-c2ccccc2)c2c3c(sc2n1)CC(C(=O)Nc1ccc(Br)cc1)CC3 (stereo not drawn) [Compound 20] | < 10 | –
3 | – | CC(=O)Nc1nc(C)c(S(=O)(=O)Nc2ccc(C(O)(C(F)(F)F)C(F)(F)F)cc2)s1 [SR1001] | – | selectivity (interaction with other RORs) (other RORs): poor selectivity; inhibition of differentiation of Th17 cells in vitro (Th17 cells): effectively inhibit the differentiation of Th17 cells; reduction of clinical symptoms of EAE in vivo (EAE): only reduce the clinical symptoms of EAE slightly
4 | > 10 | CCCC1CCc2c(sc3nc(C)nc(Sc4nnnn4-c4ccccc4)c23)C1 (stereo not drawn) [Compound 9] | > 10 | –
5 | > 10 | CCC1CCc2c(sc3nc(C)nc(Sc4nnnn4-c4ccccc4)c23)C1 (stereo not drawn) [Compound 8] | > 10 | –
6 | > 20 | Cc1nc(Sc2nnnn2-c2ccccc2)c2c3c(sc2n1)CC(C(=O)O)CC3 (stereo not drawn) [Compound 14] | > 10 | –
7 | > 10 | Cc1nc(Sc2nnnn2-c2ccccc2)c2c3c(sc2n1)CC(C(=O)Nc1ccc(C(C)C)cc1)CC3 (stereo not drawn) [Compound 17] | < 1 | –
8 | > 10 | Cc1nc(Sc2nnnn2-c2ccccc2)c2c3c(sc2n1)CC(C(=O)Nc1cccc(Cl)c1)CC3 (stereo not drawn) [Compound 19] | < 10 | –
9 | > 10 | Cc1nc(Sc2nnnn2-c2ccccc2)c2c3c(sc2n1)CC(C)CC3 (stereo not drawn) [Compound 7] | > 10 | –
10 | > 10 | Cc1nc(Sc2nnnn2-c2ccccc2)c2c3c(sc2n1)CC(C(=O)Nc1nc2ccc(F)cc2s1)CC3 (stereo not drawn) [Compound 25] | < 5 | –
11 | > 10 | Cc1nc(Sc2nnnn2-c2ccccc2)c2c3c(sc2n1)CC(C(=O)Nc1ccc(F)cn1)CC3 (stereo not drawn) [Compound 24] | < 10 | –
12 | > 10 | Cc1nc(Sc2nnnn2-c2ccccc2)c2c3c(sc2n1)CC(C(=O)Nc1nccs1)CC3 (stereo not drawn) [Compound 21] | < 10 | –
13 | 12.6 | Cc1nc(Sc2nnnn2-c2ccccc2)c2c3c(sc2n1)CC(C(=O)NCc1ccccc1)CC3 (stereo not drawn) [Compound 18] | > 10 | –
14 | 8.25 | Cc1nc(Sc2nnnn2-c2ccccc2)c2c3c(sc2n1)CC(C(C)(C)C)CC3 (stereo not drawn) [Compound 11] | < 1 | –
15 | > 10 | Cc1cccc(NC(=O)C2CCc3c(sc4nc(C)nc(Sc5nnnn5-c5ccccc5)c34)C2)c1 (stereo not drawn) [Compound 16] | < 10 | –
16 | 1.35 | Cc1nc(Sc2nnnn2-c2ccccc2)c2c3c(sc2n1)CC(F)(F)CC3 [Compound 12] | < 1 | –
17 | > 10 | Cc1nc(Sc2nnnn2-c2ccccc2)c2c3c(sc2n1)CC(C(=O)Nc1cccnc1)CC3 (stereo not drawn) [Compound 23] | < 5 | –

Row | SMILES | EC50 (RORγt) [µM] | CC50 [1] [µM] | further results
18 | Cc1nc(Sc2nnnn2-c2ccccc2)c2c3c(sc2n1)CC(C(=O)Nc1ncc(C)s1)CC3 (stereo not drawn) [Compound 22] | 9.06 | 4.32 | inhibition of intracellular protein expression of IL-17A (in words) (IL-17A): significant inhibitory effects; inhibition of mRNA expression of RORγt, IL17A and IL-17F (in words) [2]: significant inhibitory effects
19 | Cc1nc(Sc2nnnn2-c2ccccc2)c2c3c(sc2n1)CCCC3 [Compound 6] | 2.79 | 3.98 | inhibition of intracellular protein expression of IL-17A (in words) (IL-17A): significant inhibitory effects; inhibition of mRNA expression of RORγt, IL17A and IL-17F (in words) [2]: significant inhibitory effects
20 | O=C(Cc1nc(Sc2nnnn2-c2ccccc2)c2c3c(sc2n1)CCCC3)Nc1nc2ccccc2[nH]1 [Compound 31] | 0.85 | 9.18 | inhibition of intracellular protein expression of IL-17A (in words) (IL-17A): significant inhibitory effects; inhibition of mRNA expression of RORγt, IL17A and IL-17F (in words) [2]: significant inhibitory effects; inhibiting RORγt transcription activity (in words) (RORγt; FIG. 20): significant effect
